Assay results as given in ChEMBL document CHEMBL1146945, “Quaternary salts of 4,3' and 4,4' bis-pyridinium monooximes. Part 2: synthesis and biological activity” (Bioorg Med Chem Lett, 2006).
Active and inactive are the calls of the source. The calls are words filed in the database; no cut-off is given here.

biological target: T1, Acetylcholinesterase (Mus musculus) (UniProt P21836); assay: Reactivation of TEPP inhibited mouse brain AChE at 30 uM; format: functional; parameters: scale not given: the % may be the effect or the level left
T1 sequence (whole entry): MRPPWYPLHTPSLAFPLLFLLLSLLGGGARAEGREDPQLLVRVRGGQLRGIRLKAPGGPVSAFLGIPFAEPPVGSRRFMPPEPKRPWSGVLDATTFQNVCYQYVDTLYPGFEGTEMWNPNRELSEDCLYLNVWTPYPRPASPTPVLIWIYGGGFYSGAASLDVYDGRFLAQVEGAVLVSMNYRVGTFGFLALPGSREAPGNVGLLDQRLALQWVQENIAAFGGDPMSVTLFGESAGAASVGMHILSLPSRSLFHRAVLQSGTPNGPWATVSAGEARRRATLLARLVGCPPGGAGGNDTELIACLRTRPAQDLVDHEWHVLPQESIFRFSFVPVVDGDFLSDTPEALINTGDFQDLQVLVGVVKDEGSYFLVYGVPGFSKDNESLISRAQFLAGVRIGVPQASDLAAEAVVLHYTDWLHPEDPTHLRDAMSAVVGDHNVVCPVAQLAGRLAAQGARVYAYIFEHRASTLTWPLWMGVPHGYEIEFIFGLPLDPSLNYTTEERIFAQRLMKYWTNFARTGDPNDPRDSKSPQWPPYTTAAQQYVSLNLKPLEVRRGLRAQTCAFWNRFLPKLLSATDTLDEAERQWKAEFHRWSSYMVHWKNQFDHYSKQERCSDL

Which Activity does the source give for `NC(=O)c1cc[n+](CCCCCCC[n+]2ccc(/C=N/O)cc2)cc1` here?
Its Activity is 15%.

How did the Activity turn out when `NC(=O)c1ccc[n+](CCCCCCC[n+]2ccc(/C=N/O)cc2)c1` was run?
Its Activity is 23%.

Which Activity does the source give for `O/N=C/c1cc[n+](CCCCCCC[n+]2ccc(/C=N/O)cc2)cc1` here?
The Activity was 39%.

biological target: T1, Acetylcholinesterase (Mus musculus); assay: Potentiation of inhibition of AChE by TEPP in mouse brain at 100 uM; format: functional, tissue-based

Which Activity does the source give for `NC(=O)c1cc[n+](CCCCCCC[n+]2ccc(/C=N/O)cc2)cc1` here?
Its Activity is “Active”.

`NC(=O)c1ccc[n+](CCCCCCC[n+]2ccc(/C=N/O)cc2)c1` was tested. Which Activity did it give?
Its Activity is “Active”.

biological target: T1, Acetylcholinesterase (Mus musculus); assay: Potentiation of inhibition of AChE by TEPP in mouse brain at 300 uM; format: functional, tissue-based

`NC(=O)c1cc[n+](CCCCCCC[n+]2ccc(/C=N/O)cc2)cc1` was tested. Which Activity did it give?
Its Activity is “Active”.

How did the Activity turn out when `NC(=O)c1ccc[n+](CCCCCCC[n+]2ccc(/C=N/O)cc2)c1` was run?
The Activity was “Active”.

`O/N=C/c1cc[n+](CCCCCCC[n+]2ccc(/C=N/O)cc2)cc1` was tested. Which Activity did it give?
Its Activity is “Active”.

biological target: T1, Acetylcholinesterase (Mus musculus); assay: Reactivation of TEPP inhibited AChE in mouse brain at 100 uM; format: functional, tissue-based; parameters: scale not given: the % may be the effect or the level left

For `O/N=C/c1cc[n+](CCCCCCCC[n+]2ccc(/C=N/O)cc2)cc1`, which Activity is on record?
The Activity was “inactive”.

How did the Activity turn out when `O/N=C/c1cc[n+](CCCCCCCCC[n+]2ccc(/C=N/O)cc2)cc1` was run?
The Activity was “inactive”.

`NC(=O)c1ccc[n+](CCCCCCCC[n+]2ccc(/C=N/O)cc2)c1` was tested. Which Activity did it give?
The Activity was “inactive”.

How did the Activity turn out when `O/N=C/c1cc[n+](CCCCCCC[n+]2ccc(/C=N/O)cc2)cc1` was run?
The Activity was 14%.

For `NC(=O)c1cc[n+](CCCCCCCC[n+]2ccc(/C=N/O)cc2)cc1`, which Activity is on record?
The Activity was “inactive”.

How did the Activity turn out when `NC(=O)c1ccc[n+](CCCCCCCCC[n+]2ccc(/C=N/O)cc2)c1` was run?
The Activity was “inactive”.

`NC(=O)c1cc[n+](CCCCCCCCC[n+]2ccc(/C=N/O)cc2)cc1` was tested. Which Activity did it give?
The Activity was “inactive”.

biological target: T1, Acetylcholinesterase (Mus musculus); assay: Reactivation of TEPP inhibited AChE in mouse brain at 50 uM; format: functional, tissue-based

Which Activity does the source give for `O/N=C/c1cc[n+](CCCCCCCC[n+]2ccc(/C=N/O)cc2)cc1` here?
The Activity was “inactive”.

How did the Activity turn out when `O/N=C/c1cc[n+](CCCCCCCCC[n+]2ccc(/C=N/O)cc2)cc1` was run?
Its Activity is “inactive”.

Which Activity does the source give for `NC(=O)c1ccc[n+](CCCCCCCC[n+]2ccc(/C=N/O)cc2)c1` here?
Its Activity is “inactive”.

With `NC(=O)c1cc[n+](CCCCCCCC[n+]2ccc(/C=N/O)cc2)cc1` as the compound, how does the Activity read?
The Activity was “inactive”.

For `NC(=O)c1ccc[n+](CCCCCCCCC[n+]2ccc(/C=N/O)cc2)c1`, which Activity is on record?
The Activity was “inactive”.

`NC(=O)c1cc[n+](CCCCCCCCC[n+]2ccc(/C=N/O)cc2)cc1` was tested. Which Activity did it give?
Its Activity is “inactive”.

biological target: T1, Acetylcholinesterase (Mus musculus); assay: Reactivation of TEPP inhibited AChE in mouse brain at 250 uM; format: functional, tissue-based

For `O/N=C/c1cc[n+](CCCCCCCC[n+]2ccc(/C=N/O)cc2)cc1`, which Activity is on record?
Its Activity is “inactive”.

Which Activity does the source give for `O/N=C/c1cc[n+](CCCCCCCCC[n+]2ccc(/C=N/O)cc2)cc1` here?
The Activity was “inactive”.

How did the Activity turn out when `NC(=O)c1ccc[n+](CCCCCCCC[n+]2ccc(/C=N/O)cc2)c1` was run?
Its Activity is “inactive”.

`NC(=O)c1cc[n+](CCCCCCCC[n+]2ccc(/C=N/O)cc2)cc1` was tested. Which Activity did it give?
The Activity was “inactive”.

Which Activity does the source give for `NC(=O)c1ccc[n+](CCCCCCCCC[n+]2ccc(/C=N/O)cc2)c1` here?
The Activity was “inactive”.

Which Activity does the source give for `NC(=O)c1cc[n+](CCCCCCCCC[n+]2ccc(/C=N/O)cc2)cc1` here?
Its Activity is “inactive”.

biological target: T1, Acetylcholinesterase (Mus musculus); assay: Reactivation of TEPP inhibited AChE in mouse brain at 300 uM; format: functional, tissue-based

How did the Activity turn out when `O/N=C/c1cc[n+](CCCCCCCC[n+]2ccc(/C=N/O)cc2)cc1` was run?
The Activity was “inactive”.

`O/N=C/c1cc[n+](CCCCCCCCC[n+]2ccc(/C=N/O)cc2)cc1` was tested. Which Activity did it give?
Its Activity is “inactive”.

`NC(=O)c1ccc[n+](CCCCCCCC[n+]2ccc(/C=N/O)cc2)c1` was tested. Which Activity did it give?
Its Activity is “inactive”.

With `NC(=O)c1cc[n+](CCCCCCCC[n+]2ccc(/C=N/O)cc2)cc1` as the compound, how does the Activity read?
Its Activity is “inactive”.

`NC(=O)c1ccc[n+](CCCCCCCCC[n+]2ccc(/C=N/O)cc2)c1` was tested. Which Activity did it give?
Its Activity is “inactive”.

With `NC(=O)c1cc[n+](CCCCCCCCC[n+]2ccc(/C=N/O)cc2)cc1` as the compound, how does the Activity read?
Its Activity is “inactive”.

biological target: T1, Acetylcholinesterase (Mus musculus); assay: Reactivation of TEPP inhibited AChE in mouse brain at 150 uM; format: functional, tissue-based

`O/N=C/c1cc[n+](CCCCCCCC[n+]2ccc(/C=N/O)cc2)cc1` was tested. Which Activity did it give?
The Activity was “inactive”.

How did the Activity turn out when `O/N=C/c1cc[n+](CCCCCCCCC[n+]2ccc(/C=N/O)cc2)cc1` was run?
Its Activity is “inactive”.

`NC(=O)c1ccc[n+](CCCCCCCC[n+]2ccc(/C=N/O)cc2)c1` was tested. Which Activity did it give?
Its Activity is “inactive”.

`NC(=O)c1cc[n+](CCCCCCCC[n+]2ccc(/C=N/O)cc2)cc1` was tested. Which Activity did it give?
The Activity was “inactive”.

For `NC(=O)c1ccc[n+](CCCCCCCCC[n+]2ccc(/C=N/O)cc2)c1`, which Activity is on record?
Its Activity is “inactive”.

For `NC(=O)c1cc[n+](CCCCCCCCC[n+]2ccc(/C=N/O)cc2)cc1`, which Activity is on record?
Its Activity is “inactive”.

biological target: T1, Acetylcholinesterase (Mus musculus); assay: Reactivation of TEPP inhibited AChE in mouse brain at 200 uM; format: functional, tissue-based

For `O/N=C/c1cc[n+](CCCCCCCC[n+]2ccc(/C=N/O)cc2)cc1`, which Activity is on record?
The Activity was “inactive”.

For `O/N=C/c1cc[n+](CCCCCCCCC[n+]2ccc(/C=N/O)cc2)cc1`, which Activity is on record?
Its Activity is “inactive”.

`NC(=O)c1ccc[n+](CCCCCCCC[n+]2ccc(/C=N/O)cc2)c1` was tested. Which Activity did it give?
The Activity was “inactive”.

`NC(=O)c1cc[n+](CCCCCCCC[n+]2ccc(/C=N/O)cc2)cc1` was tested. Which Activity did it give?
Its Activity is “inactive”.

For `NC(=O)c1ccc[n+](CCCCCCCCC[n+]2ccc(/C=N/O)cc2)c1`, which Activity is on record?
The Activity was “inactive”.

With `NC(=O)c1cc[n+](CCCCCCCCC[n+]2ccc(/C=N/O)cc2)cc1` as the compound, how does the Activity read?
Its Activity is “inactive”.
